Reference: paper PMC6850446, “In vivo inactivation of glycosidases by conduritol B epoxide and cyclophellitol as revealed by activity‐based protein profiling” (The Febs Journal, 2019)
pIC50: −log10 of the molar value. Like-named read-outs stand apart in the source and are kept apart here.

Experiments:
Type in all cases: cell-based
GANAB = target: T1, GANAB (Homo sapiens, UniProt Q14697); assay: intact cells treated, residual activity in lysate with 4MU-alpha-D-glucopyranoside; details: 24 h treatment of intact HEK293T cells, assay pH 7.0
T1 construct: endogenous enzyme in HEK293T cells (GBA2-expressing line); beta subunit not mentioned
T1 sequence (Q14697 29-944): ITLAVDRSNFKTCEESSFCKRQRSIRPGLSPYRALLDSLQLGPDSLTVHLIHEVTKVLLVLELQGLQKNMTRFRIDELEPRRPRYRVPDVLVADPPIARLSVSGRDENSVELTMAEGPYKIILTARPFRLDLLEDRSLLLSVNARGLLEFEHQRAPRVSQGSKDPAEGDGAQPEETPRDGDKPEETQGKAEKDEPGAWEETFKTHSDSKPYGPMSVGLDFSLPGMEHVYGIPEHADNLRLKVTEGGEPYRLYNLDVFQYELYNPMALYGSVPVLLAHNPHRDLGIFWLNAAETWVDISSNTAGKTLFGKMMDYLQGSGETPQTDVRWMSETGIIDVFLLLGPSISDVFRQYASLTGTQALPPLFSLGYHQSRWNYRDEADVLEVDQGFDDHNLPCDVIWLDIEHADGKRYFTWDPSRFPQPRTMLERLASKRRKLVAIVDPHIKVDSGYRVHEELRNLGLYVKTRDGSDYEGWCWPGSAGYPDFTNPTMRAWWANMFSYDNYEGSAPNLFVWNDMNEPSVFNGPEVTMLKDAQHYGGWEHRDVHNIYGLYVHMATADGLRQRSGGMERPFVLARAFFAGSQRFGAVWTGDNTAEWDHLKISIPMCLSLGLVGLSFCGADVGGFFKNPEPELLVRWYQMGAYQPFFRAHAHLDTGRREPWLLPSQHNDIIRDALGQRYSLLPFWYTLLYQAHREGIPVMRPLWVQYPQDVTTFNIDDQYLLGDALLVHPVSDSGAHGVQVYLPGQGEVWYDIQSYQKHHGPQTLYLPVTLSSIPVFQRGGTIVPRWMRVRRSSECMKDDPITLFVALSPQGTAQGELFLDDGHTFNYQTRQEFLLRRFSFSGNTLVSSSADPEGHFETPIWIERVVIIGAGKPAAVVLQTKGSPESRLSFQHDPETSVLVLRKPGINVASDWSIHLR

GBA (HEK293T cells) = target: T2, GBA (HEK293T cells) (Homo sapiens, UniProt P04062); assay: intact cells treated, residual activity in lysate with 4MU-glucoside; details: covalent, 24 h treatment of intact HEK293T cells, assay pH 5.2 with 25 nM AMP-DNM to block GBA2
T2 construct: gene GBA1; endogenous lysosomal enzyme in HEK293T cells that stably express human GBA2; 58-66 kDa on gel
T2 sequence (P04062 40-536): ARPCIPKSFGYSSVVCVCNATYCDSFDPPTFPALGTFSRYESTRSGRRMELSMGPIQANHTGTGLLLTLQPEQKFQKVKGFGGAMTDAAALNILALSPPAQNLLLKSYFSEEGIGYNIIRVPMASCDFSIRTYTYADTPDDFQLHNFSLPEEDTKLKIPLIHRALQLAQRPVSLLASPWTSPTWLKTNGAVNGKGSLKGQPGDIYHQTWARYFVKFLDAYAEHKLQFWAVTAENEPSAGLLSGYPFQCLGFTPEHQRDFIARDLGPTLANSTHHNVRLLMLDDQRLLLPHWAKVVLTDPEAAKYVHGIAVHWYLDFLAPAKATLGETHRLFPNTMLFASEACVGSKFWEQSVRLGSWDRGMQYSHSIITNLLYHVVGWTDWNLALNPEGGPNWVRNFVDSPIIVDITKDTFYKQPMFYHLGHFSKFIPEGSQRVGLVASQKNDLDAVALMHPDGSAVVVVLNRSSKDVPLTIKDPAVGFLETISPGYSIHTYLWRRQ
Description: intact cells treated, residual activity in lysate with 4MU-glucoside on GBA (HEK293T cells)

[1] = target: T3, GBA2 (nonlysosomal glucosylceramidase) (Homo sapiens, UniProt Q9HCG7); assay: as above
T3 construct: human GBA2 stably expressed in HEK293T; 110 kDa on gel
T3 sequence (Q9HCG7 1-927): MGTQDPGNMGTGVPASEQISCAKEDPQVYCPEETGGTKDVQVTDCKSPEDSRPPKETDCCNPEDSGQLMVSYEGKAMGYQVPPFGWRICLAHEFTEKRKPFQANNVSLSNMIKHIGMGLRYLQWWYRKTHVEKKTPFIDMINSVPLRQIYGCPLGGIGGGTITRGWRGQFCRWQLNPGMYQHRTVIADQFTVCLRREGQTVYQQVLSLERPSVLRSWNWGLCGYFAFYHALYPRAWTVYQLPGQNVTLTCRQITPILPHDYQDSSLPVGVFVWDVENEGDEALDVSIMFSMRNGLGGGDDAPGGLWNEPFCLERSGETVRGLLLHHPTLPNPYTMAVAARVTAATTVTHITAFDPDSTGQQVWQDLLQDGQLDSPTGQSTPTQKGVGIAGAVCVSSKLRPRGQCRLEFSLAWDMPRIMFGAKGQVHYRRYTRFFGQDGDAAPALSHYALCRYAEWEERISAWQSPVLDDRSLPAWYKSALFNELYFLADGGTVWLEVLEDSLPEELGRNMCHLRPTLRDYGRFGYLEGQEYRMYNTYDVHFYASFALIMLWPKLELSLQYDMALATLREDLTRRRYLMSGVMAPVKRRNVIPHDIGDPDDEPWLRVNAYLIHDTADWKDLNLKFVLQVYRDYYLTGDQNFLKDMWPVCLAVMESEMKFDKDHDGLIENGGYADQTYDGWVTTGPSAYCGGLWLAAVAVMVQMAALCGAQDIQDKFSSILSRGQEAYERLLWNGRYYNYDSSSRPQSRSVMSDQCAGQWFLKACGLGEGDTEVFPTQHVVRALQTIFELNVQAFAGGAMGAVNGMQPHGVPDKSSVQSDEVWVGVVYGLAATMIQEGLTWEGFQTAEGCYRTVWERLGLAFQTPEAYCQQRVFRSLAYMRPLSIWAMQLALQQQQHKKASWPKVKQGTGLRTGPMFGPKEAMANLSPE
Description: intact cells treated, residual activity in lysate with 4MU-glucoside on GBA2 (nonlysosomal glucosylceramidase)

SMILES | pIC50 (GANAB; covalent, read-out: CBE / Enz. assay) | pIC50 (GBA (HEK293T cells); read-out: CBE / Enz. assay) | pIC50 ([1]; read-out: CBE / Enz. assay) | pIC50 (GANAB; read-out: apparent IC50) | pIC50 (GBA (HEK293T cells); read-out: CP / Enz. assay) | pIC50 ([1]; read-out: CP / Enz. assay)
OC1C(O)C(O)C2OC2C1O (stereo not drawn) [compound 1, conduritol B epoxide] | 2.80 | 6.48 | 3.57 | – | – | –
OC[C@@H]1[C@@H](O)[C@H](O)[C@@H](O)[C@@H]2O[C@H]12 [compound 2, cyclophellitol] | – | – | – | < 5.00 | 7.07 | 6.70
